Reference: patent US20220096650A1 (Glaxosmithkline Intellectual Property Development Limited, priority 2019, published 2022)
Values belong to the molecule of their own block, whether it stands above or below them.

Experiments:
[1] = tested on: cells expressing human or cynomolgus PD-1; settings: human versus cynomolgus PD-1; cited from earlier work
[2] = biological target: T1, cynomolgus PD-1 (cynomolgus); experiment: kinetic analysis (bio-light interferometry)
T1 chain: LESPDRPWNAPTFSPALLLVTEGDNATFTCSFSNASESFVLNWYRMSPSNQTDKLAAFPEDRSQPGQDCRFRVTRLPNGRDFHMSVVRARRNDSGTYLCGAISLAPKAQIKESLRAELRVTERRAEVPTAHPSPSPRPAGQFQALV

Molecule: pembrolizumab: monoclonal IgG4 kappa antibody that binds the PD-1 receptor and blocks its interaction with PD-L1 and PD-L2
blocking of binding of human PD-1 ligands to cells expressing human or cynomolgus PD-1 [1]: comparable potency

Kd [2]: 118 pM
B1: Pembrolizumab (antibody, human IgG4 S228P, kappa, V domains shown)
VH: QVQLVQSGVEVKKPGASVKVSCKASGYTFTNYYMYWVRQAPGQGLEWMGGINPSNGGTNFNEKFKNRVTLTTDSSTTTAYMELKSLQFDDTAVYYCARRDYRFDMGFDYWGQGTTVTVSS
VL: EIVLTQSPATLSLSPGERATLSCRASKGVSTSGYSYLHWYQQKPGQAPRLLIYLASYLESGVPARFSGSGSGTDFTLTISSLEPEDFAVYYCQHSRDLPLTFGGGTKVEIKR
notes: also called MK3475
